≈ marks a conversion by molar mass, not a printed value. Where two headings read alike, the source gives them in different places.

Series [1] relates to Arabidopsis thaliana. The experiment in a line: Arabidopsis growth inhibition assay (24-well plates, green channel pixel value). The conditions noted are these: Arabidopsis thaliana, 240 h; for EC50: read-out: EC50 against Arabidopsis growth; for pest or weed control at 100 µg/mL: read-out: InR (%) against Arabidopsis.
Series [2] relates to Echinochloa crus-galli. In words: Pre-emergence herbicidal inhibition assay, Petri dish test, EC. Format: in vivo. The conditions noted are these: Echinochloa crus-galli, 168 h, 7 days. The method, then: (§1) The pre-emergence activity of the compounds against monocot Echinochloa crus-galli (EC) and dicot Brassica napus L. (BN) was evaluated using the standard Petri dish test. The compounds were dissolved in DMF, emulsified with Tween-80 and diluted with water to form stock solutions, each of which was further diluted to a gradient of 100, 50, 25, 10 and 1 mg/L for test. The test solutions were added to Petri dishes lined with a filter paper, on which 10 seeds of EC and BN were placed. After cultured in an intelligent climate chamber with a humidity of 65% at 26 °C for 7 days, the corresponding EC50 values were calculated.

Series [3] has as its system Brassica napus L. The experiment in a line: Pre-emergence herbicidal inhibition assay, Petri dish test, BN. Format: in vivo. The conditions noted are these: Brassica napus, 168 h, 7 days. The method, then:
as §1

Series [4] concerns the target recombinant E. coli DXR (EcDXR) (Escherichia coli, UniProt P45568). The experiment in a line: biochemical. The following applies: read-out: InR (%) on DXR enzyme.
The subject of series [5] is Arabidopsis thaliana. The experiment in a line: DMAPP rescue on Arabidopsis. Format: in vivo. The following applies: FOS 40 mg/L. The protocol: The DMAPP rescue on Arabidopsis was conducted using the afore-mentioned culture conditions. […] To one of the two species in each group, an additional 150 μg of DMAPP (Aladdin) was added. After 10 days of cultivation, the green channel pixel values of Arabidopsis in each well were measured. A two-tailed paired Student’s t-test was used to compare the two species within the same group, and p < 0.05 indicates a statistically significant difference.

For series [6], the system named is MtDXR. The arrangement: method as in PMID 21824775. The conditions noted are these: cited from earlier work.
Series [7] deals with Amaranthus retroflexus. The experiment in a line: Post-emergence herbicidal inhibition assay, AR. The format is in vivo. The following applies: 300 g ai/ha spray, two weeks after treatment. The protocol: (§2) The post-emergence activity of compounds against EC and Amaranthus retroflexus (AR) was determined at a dose of 300 g ai/ha. The model plants initially grow as seedlings, and a few days prior to treatment, five seedlings with similar growth conditions for the plant were transplanted into one pot containing nutrient soil. The test solutions were prepared by dissolving the compounds in water containing DMF and Tween-80 and sprayed when the plant grew to the 1~2 leaf stage. The herbicidal activity was evaluated via visual observation and fresh weighing after two weeks of treatment.

The subject of series [8] is Echinochloa crus-galli. In words: Post-emergence herbicidal inhibition assay, EC. The format is in vivo. The following applies: 300 g ai/ha spray, two weeks after treatment. The protocol:
as §2

Sequence of recombinant E. coli DXR (EcDXR) (P45568 whole entry): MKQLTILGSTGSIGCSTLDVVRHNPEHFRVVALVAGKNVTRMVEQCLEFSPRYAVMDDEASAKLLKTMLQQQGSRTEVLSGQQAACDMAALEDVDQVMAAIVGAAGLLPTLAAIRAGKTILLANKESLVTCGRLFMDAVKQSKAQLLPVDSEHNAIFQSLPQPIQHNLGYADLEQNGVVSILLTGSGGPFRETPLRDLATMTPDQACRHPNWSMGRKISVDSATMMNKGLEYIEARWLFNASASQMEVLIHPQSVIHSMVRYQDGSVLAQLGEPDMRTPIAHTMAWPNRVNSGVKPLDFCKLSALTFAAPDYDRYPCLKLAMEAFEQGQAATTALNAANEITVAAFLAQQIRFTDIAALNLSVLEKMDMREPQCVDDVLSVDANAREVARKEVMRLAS

Take `CCc1n[nH]c(CC)c1CCP(=O)(O)O` [Compound 5f]: the melting point is greater than 250 °C. In addition, in [1], the EC50 is greater than 100 µg/mL and the pest or weed control at 100 µg/mL worked out at 37.7%. Moreover, the EC50 in series [2] (root, read-out: EC50 EC Root) was 71.6 µg/mL (≈ 308 µM). In [2] (stalk, read-out: EC50 EC Stalk), the EC50 is 31.4 µg/mL (≈ 135 µM). Also, the EC50 in [3] (root, read-out: EC50 BN Root) was greater than 100 µg/mL. For the same compound, the EC50 in series [3] (stalk, read-out: EC50 BN Stalk) is greater than 100 µg/mL. The inhibition at 100 µM in series [4] was found to be 32.4%.
Take `O=CN(O)CCCP(=O)(O)O` [FOS, Fosmidomycin, reference compound]: the EC50 in [1] came to 27.5 ± 3.1 µg/mL (≈ 150 µM); in series [2] (root, read-out: EC50 EC Root), 40.2 µg/mL (≈ 220 µM); in series [2] (stalk, read-out: EC50 EC Stalk), 38.4 µg/mL (≈ 210 µM); in series [3] (root, read-out: EC50 BN Root), 34.7 µg/mL (≈ 190 µM); in series [3] (stalk, read-out: EC50 BN Stalk) it was 32.9 µg/mL (≈ 180 µM). Also, the pest or weed control at 100 µg/mL in series [1] stood at 86.8%. Besides, in series [5] (13e 20 mg/L, DMAPP 150 mg/L, t-test), the “rescue of developmental arrest and bleaching by DMAPP (change of pixel values)” value is recorded as “rescued”. In series [5] (10 days), the “green channel pixel value of Arabidopsis images, without DMAPP” value was 32,789. The “green channel pixel value of Arabidopsis images, with DMAPP” value in series [5] (DMAPP 150 mg/L, 10 days) is reported as 54,164. The IC50 in series [6] was 80 nM. The “Loss of Weight (%) AR” value in series [7] (fresh weighing) was 31.5%. Besides, the “Visual Evaluation AR” value in series [7] is listed as “+ (“+”: ≥20%)”. Further, the inhibition at 100 µM in series [4] came to 98.7%. For the same compound, in [8] (fresh weighing), the “Loss of Weight (%) EC” value was 27.4%. Besides, in [8], the “Visual Evaluation EC” value is listed as “+ (“+”: ≥20%)”.
Compound `O=P(O)(O)C(Cc1c(C(F)(F)F)n[nH]c1O)P(=O)(O)O` [Compound 12e] displayed a melting point of 225 to 226 °C. For the same compound, in series [1], the EC50 was greater than 100 µg/mL and the pest or weed control at 100 µg/mL worked out at 31.5%. Also, the EC50 in series [2] (root, read-out: EC50 EC Root) was found to be 46.8 µg/mL (≈ 138 µM). For the same compound, in [2] (stalk, read-out: EC50 EC Stalk), the EC50 is greater than 100 µg/mL. In addition, the EC50 in series [3] (root, read-out: EC50 BN Root) was greater than 100 µg/mL. In [3] (stalk, read-out: EC50 BN Stalk), the EC50 turned out to be 45.7 µg/mL (≈ 134 µM). The inhibition at 100 µM in series [4] stood at 22.8%.
Turning to `Cc1n[nH]c(C)c1CC(P(=O)(O)O)P(=O)(O)O` [Compound 12g], the melting point was greater than 250 °C. In addition, in [1], the EC50 was greater than 100 µg/mL and the pest or weed control at 100 µg/mL came out at 40.4%. In series [2] (root, read-out: EC50 EC Root), the EC50 came to 38.8 µg/mL (≈ 137 µM). The EC50 in series [2] (stalk, read-out: EC50 EC Stalk) was 31.4 µg/mL (≈ 111 µM). Also, the EC50 in series [3] (root, read-out: EC50 BN Root) is greater than 100 µg/mL. Further, the EC50 in series [3] (stalk, read-out: EC50 BN Stalk) was 32.9 µg/mL (≈ 116 µM). The inhibition at 100 µM in series [4] came to 11.6%.
In the case of `O=P(O)(O)C(Cc1c(C(F)F)n[nH]c1O)P(=O)(O)O` [Compound 12f], the melting point lay in the range of 228 to 229 °C. In series [1], the EC50 was greater than 100 µg/mL and the pest or weed control at 100 µg/mL worked out at 47%. For the same compound, the EC50 in series [2] (root, read-out: EC50 EC Root) worked out at 36.5 µg/mL (≈ 113 µM). In [2] (stalk, read-out: EC50 EC Stalk), the EC50 turned out to be 12.6 µg/mL (≈ 39.1 µM). Also, in series [3] (root, read-out: EC50 BN Root), the EC50 amounted to 15.6 µg/mL (≈ 48.4 µM). In [3] (stalk, read-out: EC50 BN Stalk), the EC50 came out at 22.3 µg/mL (≈ 69.2 µM). In addition, in [4], the inhibition at 100 µM worked out at 6.1%.
For `CC(C)c1n[nH]c(O)c1CC(P(=O)(O)O)P(=O)(O)O` [Compound 12d], the melting point is greater than 250 °C. Further, in [1], the EC50 is greater than 100 µg/mL and the pest or weed control at 100 µg/mL came to 44.8%. Besides, the EC50 in series [2] (root, read-out: EC50 EC Root) was greater than 100 µg/mL. The concentration for a half-maximal effect (EC50) in series [2] (stalk, read-out: EC50 EC Stalk) came to 39.1 µg/mL (≈ 124 µM). The EC50 in series [3] (root, read-out: EC50 BN Root) is 21.2 µg/mL (≈ 67.5 µM). Moreover, the EC50 in [3] (stalk, read-out: EC50 BN Stalk) turned out to be 41.5 µg/mL (≈ 132 µM). The inhibition at 100 µM in series [4] was 12.4%.

The values above are taken from paper PMC10673511, “Design, Synthesis and Bioactivity Evaluation of Heterocycle-Containing Mono- and Bisphosphonic Acid Compounds” (Molecules, 2023).
